From patent US20260034161A1, “2-HYDROXYPROPYL-BETA-CYCLODEXTRIN AS A CANCER THERAPY NEOADJUVANT OR ADJUVANT” (University of the Witwatersrand, Johannesburg, priority 2022, published 2026)
“Also recorded” adds a separate entry of the source.

What was measured:
[1] = Tolerability of treatments in tumour-bearing NOD/SCID mice; assay type: in vivo
Method: (§1) In order to investigate the in vivo application of HPβCD as an anti-cancer agent for colorectal cancer (CRC) using NOD/SCID mice, 24 NOD/SCID mice (5-8 weeks old) were injected with 4×10^6 HT-29 cells (suspended in 10% McCoy's media and 1×PBS), until tumours developed. Once tumours reached a size of 150-200 mm^3 (1-2 weeks), treatments (12 treatments in total for each group, however only up to 6 treatments for the OXAL treated group due to obvious toxicity) were given. Treatment groups consisted of 4 mice each and included a control group (injected with 1×PBS), a group treated with HPβCD, a group treated with Oxaliplatin (OXAL) only, a group treated with 5-Fluorouracil (5FU) only, a group treated with HPβCD and OXAL and lastly a group treated with HPβCD and 5FU. Mice were intraperitoneally injected with 3 000 mg/kg of HPβCD, 10 mg/kg of OXAL and 30 mg/kg of 5FU thrice a week for 4 weeks. For combination treatments HPβCD was administered with either 5FU or OXAL chemotherapy. Mice were weighed three times a week and averages were calculated to show per week weights. When mice were euthanized, serum was collected from whole blood samples and this was further used to test cholesterol levels, as well as Aspartate aminotransferase (AST) and Alanine aminotransferase (ALT) as a measure for liver toxicity. They were then perfused and all organs, including tumours, were harvested. All organs were snap frozen and stored at −80° C. Tumour samples were further stored in 10% neutral buffered formalin (4° C.) and RNA Later (−80° C.).

NMuMg cells [2] = test: Immunofluorescence of EMT markers E-cadherin and vimentin in NMuMg cells; assay type: cell-based, mouse
Method: (§2) Three different mechanisms of action were used to induce EMT in breast and colorectal adenocarcinoma cell lines. Breast cancer MCF-7 cells were treated with 150 micromolar (μM) cobalt chloride (CoCl2) for 48 hours. Initially, a working stock solution of 2500 μM COCl2 was prepared by dilution in distilled water. The resulting solution was further diluted upon administration to cells cultured in cell culture media. Cell culture media composition: Dulbecco's Modified Eagle's Medium (DMEM) (Sigma Aldrich, UK) supplemented with 10% foetal bovine serum (FBS) (Celtic Molecular Diagnostics, SA) and 1% Penicillin-Streptomycin (Sigma Aldrich, UK). NMuMg cells (a normal mouse mammary cell line) were treated with 10 nanograms/millilitre of transforming growth factor beta 1 (TGF-β) for 48 hours. A stock solution of TGF-β was prepared by reconstituting 2 μg of recombinant TGF-β at 20 μg/mL in sterile 4 mM HCl containing 1 mg/mL of bovine serum albumin (BSA) diluted in water. NMuMG cells were cultured in Dulbecco's Modified Eagle Medium (DMEM) (ThermoFisher Scientific, USA), supplemented with 10% FBS, 1% Penicillin-Streptomycin, 1% GlutaMAX, and 10 μg/mL insulin. Colorectal cancer HT-29 cells were treated with 50 nanograms/millilitre of interleukin-6 (IL-6) for 24 hours. A working stock solution of 1 micrograms/millilitre of IL-6 was prepared by dilution in 0.1% BSA in phosphate-buffered saline (PBS). The resulting solution was further diluted upon administration to cells cultured in cell culture media. […]
(§3) Protein expression of EMT molecular markers in control and CoCl2, TGF-β and IL-6 treated cells was detected by employing immunofluorescence microscopy. […] E-cadherin expression was detected by Alexa Fluor 488 staining (green) while nuclei were stained with DAPI (blue) (FIG. 1). Vimentin expression was detected by Texas Red staining (red) while nuclei were stained with DAPI (blue) (FIG. 2). […]
(§4) Methyl-β-cyclodextrin (MβCD) was employed as a positive control, as it is a well-documented cholesterol depletory agent. […] Immunofluorescence intensity was quantified by utilising the ImageJ software (NIH, USA). Cells of interest and background fluorescence was analysed by considering the following parameters: area, integrated density and mean grey value. Corrected total cellular fluorescence was calculated as follows: CTCF=Integrated Density−(Area of selected cell×Mean fluorescence of background readings).
(§5) The protein expression of E-cadherin following treatment with various cholesterol targeting agents in MCF-7, NMuMg, and HT-29 cells, pre- and post-EMT induction was investigated. E-cadherin expression was determined by Alexa Fluor 488 staining (green) while nuclei were stained with DAPI (blue). […]

[3] = Serum AST and ALT as a measure of liver toxicity; conditions: mouse, in vivo
Method: as §1, with “When mice were euthanized, serum was collected from whole blood samples and this was further used to test cholesterol levels, as well as Aspartate aminotransferase (AST) and Alanine aminotransferase (ALT) as a measure for liver toxicity. They were then perfused and all organs, including tumours, were harvested. All organs were snap frozen and stored at −80° C. Tumour samples were further stored in 10% neutral buffered formalin (4° C.) and RNA Later (−80° C.).” left out
Blood was collected post euthanization and serum was analysed for AST and ALT levels using the IDEXX Catalyst DX Chemistry Analyzer. […]

[4] = Serum cholesterol levels post treatment; assay type: in vivo, NOD/SCID mice
Method: as §1

MCF-7 cells = test: Immunofluorescence of EMT markers E-cadherin and vimentin in MCF-7 cells; assay type: cell-based
Method: as §2, §3, §4, §5

[5] = tested on: multidrug resistance protein 1 (MDR1); test: Vybrant MDR assay (calcein AM retention); assay type: cell-based; conditions: HT-29 cells treated with the FOLFOX chemotherapy cocktail; 1 mM MβCD, 10 mM HPβCD; preliminary data
Method: To assess the multi-drug resistant potential of cells pre- and post-EMT, the Vybrant® MDR Assay Kit (ThermoFisher Scientific, USA) was employed. This assay relies on the administration of an appropriate multidrug resistance protein 1 (MDR1) substrate, calcein acetoxymethyl ester (calcein AM) where drug-efflux potential is assessed by measuring the levels of intracellular calcein fluorescence. 10 000 cells were seeded per well in a 96-black walled plate. Following the 2-hour treatment period, cells were incubated with 0.25 μM Calcein-AM for 30 minutes at 37° C. Following this, two PBS washes were completed, and PBS administered to each well to ascertain fluorescence intensity. The Victor Nivo multi-mode microplate reader (Perkin Elmer, USA) was utilised with the excitation maximum set to 494 nm and the emission maximum set to 517 nm.
This can be attributed to alterations in lipid-raft membrane structure resulting in translocation of MDR1 to detergent soluble fractions which affects basal ATPase activity. This consequently affects the efflux potential of the MDR1 transporter. […] Fluorescence intensity (RFU) was quantified using the Victor Nivo multi-mode microplate reader (Perkin Elmer, USA) with the excitation maximum set to 494 nm and the emission maximum set to 517 nm.

[6] = Toxicity of HPβCD compared to simvastatin
NMuMg cells [7] = test: RT-qPCR of cholesterol-related genes in NMuMg cells; conditions: NMuMg post-EMT
Method: Relative expression is presented as log 2 fold changes between conditions.
To delineate the molecular mechanism governing cholesterol-mediated EMT induction, RT-qPCR analysis of the major cholesterol-related genes were assessed in the NMuMg cell line. RNA was extracted using the Direct-Zol™ RNA MiniPrep kit (Zymo Research, Inqaba Biotec™, SA). RNA extraction was carried out as per the manufacturer's protocol. Total RNA of 1 μg was utilised for cDNA synthesis using the RevertAidFirst Strand cDNA Synthesis kit (Thermo Fisher Scientific, USA) and was carried out according to the manufacturer's protocol. qPCR was performed using the SensiFAST™ SYBR® No-ROX kit, utilising a 3-step cycle on the CFX96 Touch™ Real-Time PCR detection system (Bio-Rad).

HT-29 cells [8] = test: Immunofluorescence of EMT markers E-cadherin and vimentin in HT-29 cells; assay type: cell-based
Method: as §2, §3, §4, §5

HT-29 cells [9] = test: HT-29 colorectal cancer xenograft in NOD/SCID mice: tumour size, weight, metastasis; assay type: in vivo; design: Tumour reduction / Tumour gain or reduction: concentration or dose not given beside the values; conditions: for Average tumour size / Average tumour weight: group average, 4 mice, 3 000 mg/kg HPβCD, 10 mg/kg OXAL, 30 mg/kg 5FU i.p.; for Tumour reduction: tumour size; for Tumour reduction / Tumour gain or reduction: as compared to the untreated group; for Tumour gain or reduction: tumour weight
Method: as §1

[10] = post-EMT (TGF-β), 2-hour treatment, 10 mM HPβCD, 1 mM MβCD
[11] = MCF-7, post-EMT (CoCl2), 2-hour treatment, 10 mM HPβCD, 1 mM MβCD
[12] = HT-29, post-EMT (IL-6), 2-hour treatment, 10 mM HPβCD, 1 mM MβCD
[13] = 10 ng/mL TGF-β for 48 hours vs control
[14] = MCF-7, 150 μM CoCl2 for 48 hours vs control
[15] = HT-29, 50 ng/mL IL-6 for 24 hours vs control

2-hydroxypropyl-β-cyclodextrin [HPβCD]
effect of HPβCD on toxicity of the co-administered chemotherapy ([1]; 3 000 mg/kg HPβCD i.p. with OXAL or 5FU): decreased the toxicity of OXAL; also recorded: reduced toxicity of OXAL; also recorded: reduce toxicity related to 5FU
E-cadherin expression (immunofluorescence) (NMuMg cells [2]; [10]): increase
vimentin expression (immunofluorescence) (NMuMg cells [2]; [10]): decrease
AST:ALT ratio [3]: 1.67 U/L
liver toxicity (in words) [3]: no observed liver toxicity
average level of serum cholesterol ([4]; untreated average 51 mg/dL): 65.5 mg/dL
E-cadherin expression (immunofluorescence) (MCF-7 cells; [11]): increase
vimentin expression (immunofluorescence) (MCF-7 cells; [11]): decrease
intracellular retention of fluorescent calcein [5]: increase
toxicity compared to simvastatin [6]: low toxicity
effect on cholesterol efflux (gene expression) (NMuMg cells [7]; 10 mM HPβCD, 10 μM simvastatin for 2 hours): drastically affected
E-cadherin expression (immunofluorescence) (HT-29 cells [8]; [12]): increase
vimentin expression (immunofluorescence) (HT-29 cells [8]; [12]): decrease
average reduction in tumour size (HT-29 cells [9]; 3 000 mg/kg HPβCD i.p.): ~17%
tumour size, visually (HT-29 cells [9]; FIG. 9): reduced
Average tumour size (HT-29 cells [9]): 1983 mm^3
Average tumour weight (HT-29 cells [9]): 3.5125 g
Tumour reduction (HT-29 cells [9]): -17.6%
Tumour gain or reduction (HT-29 cells [9]): 9.17%

transforming growth factor beta 1 [TGF-β]
E-cadherin expression following EMT induction (NMuMg cells [2]; [13]): significantly decreased
Vimentin expression following EMT induction (NMuMg cells [2]; [13]): significantly increased

Methyl-β-cyclodextrin [MβCD]
intracellular retention of fluorescent calcein [5]: increase
effect on cholesterol biosynthesis and influx (gene expression) (NMuMg cells [7]; 1 mM MβCD for 2 hours): more significant effect

O=c1[nH]cc(F)c(=O)[nH]1 [5FU, 5-Fluorouracil]
serum cholesterol levels (in words) [4]: significantly higher
Average tumour size (HT-29 cells [9]): 841.4 mm^3
Average tumour weight (HT-29 cells [9]): 1.4475 g
Tumour reduction (HT-29 cells [9]): -65.1%
Tumour gain or reduction (HT-29 cells [9]): -55%

[Cl][Co][Cl] [CoCl2, cobalt chloride]
E-cadherin expression following EMT induction (MCF-7 cells; [14]): significantly decreased
Vimentin expression following EMT induction (MCF-7 cells; [14]): significantly increased

interleukin-6 [IL-6]
E-cadherin expression following EMT induction (HT-29 cells [8]; [15]): significantly decreased
Vimentin expression following EMT induction (HT-29 cells [8]; [15]): significantly increased

O=C1[O][Pt]2([NH][C@@H]3CCCC[C@H]3[NH]2)[O]C1=O [OXAL, Oxaliplatin]
unexpected death of mice in treatment group ([1]; 6 treatments of OXAL alone, 10 mg/kg i.p.): 50%
health outcome of treated mice ([1]; OXAL alone 6 treatments, OXAL with HPβCD all 12 treatments of the same dose): 2 died and 2 had to be euthanized
serum cholesterol levels (in words) [4]: significantly higher
Average tumour size (HT-29 cells [9]): 1413 mm^3
Average tumour weight (HT-29 cells [9]): 1.6975 g
metastasis at dissection (HT-29 cells [9]; mouse, in vivo): metastasis almost throughout the body in one mouse
Tumour reduction (HT-29 cells [9]): -41.3%
Tumour gain or reduction (HT-29 cells [9]): -47.2%
